Values of other authors in patent US20080031932A1, “Transdermal atomoxetine formulations and associated methods” (Watson Laboratories, Inc., priority 2006, published 2008).

Assays:
serotonin reuptake = serotonin reuptake (Homo sapiens, UniProt P31645)
[1] = molecular target: norepinephrine reuptake transporter (Homo sapiens, UniProt P23975); details: compared to atomoxetine
Sequence of norepinephrine reuptake transporter (P23975 whole entry): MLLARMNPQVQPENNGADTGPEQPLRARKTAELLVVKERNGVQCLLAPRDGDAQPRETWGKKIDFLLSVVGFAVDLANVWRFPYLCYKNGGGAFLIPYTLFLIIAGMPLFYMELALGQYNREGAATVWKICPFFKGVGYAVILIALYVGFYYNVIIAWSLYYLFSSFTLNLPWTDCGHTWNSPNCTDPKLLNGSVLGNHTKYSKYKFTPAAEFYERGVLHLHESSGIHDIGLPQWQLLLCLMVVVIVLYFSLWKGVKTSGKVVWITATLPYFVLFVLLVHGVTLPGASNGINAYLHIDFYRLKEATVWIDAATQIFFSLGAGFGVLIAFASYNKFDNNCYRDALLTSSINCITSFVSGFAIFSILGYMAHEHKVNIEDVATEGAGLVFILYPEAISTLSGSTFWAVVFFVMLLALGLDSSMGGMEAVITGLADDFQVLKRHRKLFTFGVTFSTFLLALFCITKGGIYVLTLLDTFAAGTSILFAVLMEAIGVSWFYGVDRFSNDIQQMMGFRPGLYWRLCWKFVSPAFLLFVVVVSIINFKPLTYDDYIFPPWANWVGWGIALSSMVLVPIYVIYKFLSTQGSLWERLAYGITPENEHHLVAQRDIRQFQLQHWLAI

Sequence of serotonin reuptake (P31645 whole entry): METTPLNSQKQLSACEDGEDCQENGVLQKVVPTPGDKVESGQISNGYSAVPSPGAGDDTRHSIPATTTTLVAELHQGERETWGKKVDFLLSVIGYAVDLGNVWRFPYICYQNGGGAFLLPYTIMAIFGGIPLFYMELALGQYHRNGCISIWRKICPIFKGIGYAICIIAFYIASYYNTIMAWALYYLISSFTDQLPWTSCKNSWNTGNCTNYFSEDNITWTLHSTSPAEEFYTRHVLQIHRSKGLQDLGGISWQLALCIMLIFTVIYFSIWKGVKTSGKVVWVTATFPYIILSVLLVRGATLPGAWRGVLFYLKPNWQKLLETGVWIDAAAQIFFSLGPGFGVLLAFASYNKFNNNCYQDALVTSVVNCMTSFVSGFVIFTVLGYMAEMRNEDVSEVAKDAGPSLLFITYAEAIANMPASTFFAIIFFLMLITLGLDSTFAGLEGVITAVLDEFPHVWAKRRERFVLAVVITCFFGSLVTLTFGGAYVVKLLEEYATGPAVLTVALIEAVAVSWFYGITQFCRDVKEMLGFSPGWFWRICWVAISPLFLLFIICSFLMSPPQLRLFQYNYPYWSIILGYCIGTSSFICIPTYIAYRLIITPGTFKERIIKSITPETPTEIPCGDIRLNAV

Structure (SMILES)	plasma half-life (individuals having normal activity in the CYP2D6 pathway)	half-life (individuals with reduced activity in the CYP2D6 pathway (poor metabolizers))	serotonin reuptake inhibition (serotonin reuptake)	affinity to other receptor systems (other receptor systems)	inhibitory activity to the norepinephrine reuptake transporter [1]
CNCCC(Oc1ccccc1C)c1ccccc1 (single isomer, unassigned; (-)) [atomoxetine, (−)-N-methyl-3-phenyl-3-(o-tolyloxy)-propylamine]	about 5 hours	about 24 hours	–	–	–
CNCCC(Oc1ccc(O)cc1C)c1ccccc1 (stereo not drawn) [Example 4HA, 4-hydroxyatomoxetine]	–	–	pharmacologically active serotonin reuptake inhibitor	little affinity	–
Cc1ccccc1OC(CCN)c1ccccc1 (stereo not drawn) [NDA, N-desmethylatomoxetine]	–	–	–	little affinity	less active
